Laboratory results reported in US11040028B2, “Penicinotam derivative, preparation method and use thereof” (OCEAN UNIVERSITY OF CHINA, priority 2017, dated 2021).

Tests used:
Format in all cases: cell-based
[1] = system: BHK-21 cells; experiment: Anti-fibrosis activity test: inhibition of BHK-21 cell proliferation (CCK-8); conditions: Mesocricetus auratus, BHK-21, 48 h
Method in brief: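 Cells plated 2×10^4 cells/mL; 24 h attach; compound dilutions, triplicate, 48 h, 37° C/5% CO2; CCK-8 2 h; A450; IR = (1−Ai/Ao)×100%; IC50 by curve fit.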

[2] = system: human lung fibroblasts HFL1; experiment: Anti-fibrosis activity test: inhibition of proliferation of human lung fibroblasts HFL1 (CCK-8); conditions: Homo sapiens, HFL1, 48 h
Method in brief: (§1)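 Cells seeded at 2×10^4 cells/mL, adhered 24 h, then exposed to compound concentrations in triplicate for 48 h at 37° C, 5% CO2. CCK-8 added for 2 h, absorbance at 450 nm; inhibition = (1−Ai/Ao)×100% versus blank control, IC50 calculated.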

[3] = system: human hepatic stellate cells LX-2; experiment: Anti-fibrosis activity test: inhibition of proliferation of human hepatic stellate cells LX-2 (CCK-8); conditions: Homo sapiens, 48 h
Method in brief: as §1

[4] = system: human fibrosarcoma cells HT-1080; experiment: Anti-fibrosis activity test: inhibition of proliferation of human fibrosarcoma cells HT-1080 (CCK-8); conditions: Homo sapiens, HT-1080, 48 h
Method in brief: as §1

[5] = system: human dermal fibroblasts CCC-ESF-1; experiment: Anti-fibrosis activity test: inhibition of proliferation of human dermal fibroblasts CCC-ESF-1 (CCK-8); conditions: Fibroblast
Method in brief: as §1

[6] = system: human embryonic lung fibroblast IMR-90; experiment: Anti-fibrosis activity test: inhibition of proliferation of human embryonic lung fibroblast IMR-90 (CCK-8)
Method in brief: as §1

[7] = system: cardiac fibroblast RAT-iCell-C002; experiment: Anti-fibrosis activity test: inhibition of proliferation of cardiac fibroblast RAT-iCell-C002 (CCK-8); conditions: Cardiac fibroblast, 48 h
Method in brief: as §1

[8] = system: mouse macrophages (RAW264.7); experiment: Lipopolysaccharide-induced NO secretion in macrophages (Griess); conditions: Mus musculus, RAW264.7, 24 h, RAW264.7, LPS 1 μg/ml, a/b isomers given as first/second symbol, read-out: IC50 (μM), inhibition of lipopolysaccharide-induced NO secretion in macrophages
Method in brief: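 RAW264.7 macrophages in DMEM with 10% FBS received test samples at several concentrations and were stimulated with 1 μg/ml LPS for 24 h. NO in the supernatant was measured with the Griess reagent at 548 nm, […].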

[9] = CCK-8, 48 hours after administration
[10] = human lung fibroblasts HFL1, CCK-8, 48 hours
[11] = human hepatic stellate cells LX-2, CCK-8, 48 hours
[12] = human fibrosarcoma cells HT-1080, CCK-8, 48 hours
[13] = human dermal fibroblasts CCC-ESF-1, CCK-8, 48 hours
[14] = human embryonic lung fibroblast IMR-90, CCK-8, 48 hours
[15] = cardiac fibroblast RAT-iCell-C002, CCK-8, 48 hours
[16] = Homo sapiens, CCC-ESF-1 cells, 48 h, CCK-8
[17] = Homo sapiens, IMR-90 cells, 48 h, CCK-8

IC50 [4, 12] [mM]	IC50 [8] [µM]	IC50 ([4]; HT-1080 cells, 48 h, CCK-8) [mM]	SMILES	IC50 [1, 9] [mM]	IC50 [2, 10] [mM]	IC50 [3, 11] [mM]	IC50 [5, 13] [mM]	IC50 [6, 14] [mM]	IC50 [7, 15] [mM]	IC50 ([1]; 48 h, CCK-8) [mM]	IC50 ([2]; HFL1 cells, 48 h, CCK-8) [mM]	IC50 ([3]; LX-2, 48 h, LX-2 cells, CCK-8) [mM]	IC50 [5, 16] [mM]	IC50 [6, 17] [mM]	IC50 ([7]; RAT-iCell-C002 cells, CCK-8) [mM]
< 0.05	1 to 10	–	N#Cc1c(N2CCNCC2)ccc2c(OCc3ccc(F)cc3)c3c(nc12)-c1cccn1C3=O [Compound 482b, 9-((4-fluorobenzyl)oxy)-10-oxo-6-(piperazin-1-yl)-10H-pyrrolizino[1,2-b]quinoline-5-carbonitrile]	0.05 to 5	0.05 to 5	0.05 to 5	0.05 to 5	0.05 to 5	0.05 to 5	–	–	–	–	–	–
–	10 to 50	0.05 to 5	Cc1ccc2c(=O)c3c([nH]c2c1)C(=O)n1cccc1-3 [Compound 778a, 8-Methyl-5H-pyrrolizino[2,1-b]quinoline-5,11(6H)-dione]	–	–	–	–	–	–	0.05 to 5	0.05 to 5	0.05 to 5	0.05 to 5	0.05 to 5	0.05 to 5
0.05 to 5	10 to 50	–	O=C1c2c(n(Cc3ccc(F)cc3)c3cc(F)ccc3c2=O)-c2cccn21 [Compound 490a, 6-Fluoro-4-(4-fluorobenzyl)-9H-pyrrolizino[1,2-b]quinoline-9,10(4H)-dione]	0.05 to 5	0.05 to 5	0.05 to 5	0.05 to 5	0.05 to 5	< 0.05	–	–	–	–	–	–
0.05 to 5	10 to 50	–	O=C1c2c(n(Cc3cccc(F)c3)c3cc(F)ccc3c2=O)-c2cccn21 [Compound 491a, 6-Fluoro-4-(3-fluorobenzyl)-9H-pyrrolizino[1,2-b]quinoline-9,10(4H)-dione]	< 0.05	0.05 to 5	0.05 to 5	0.05 to 5	0.05 to 5	0.05 to 5	–	–	–	–	–	–
0.05 to 5	10 to 50	–	O=C1c2c(n(Cc3ccc(Cl)cc3)c3c(F)c(N4CCNCC4)ccc3c2=O)-c2cccn21 [Compound 484a, 4-(4-Chlorobenzyl)-5-fluoro-6-(piperazin-1-yl)-9H-pyrrolizino[1,2-b]quinoline-9,10(4H)-dione]	0.05 to 5	0.05 to 5	0.05 to 5	0.05 to 5	0.05 to 5	0.05 to 5	–	–	–	–	–	–
–	1 to 10	0.05 to 5	O=C1c2c(c(=O)c3ccccc3n2Cc2ccc(-c3ccccc3)cc2)-c2cccn21 [Compound 796a, 6-([1,1′-Biphenyl]-4-ylmethyl)-5H-pyrrolizino[2,1-b]quinoline-5,11(6H)-dione]	–	–	–	–	–	–	0.05 to 5	0.05 to 5	0.05 to 5	0.05 to 5	0.05 to 5	0.05 to 5
–	1 to 10	0.05 to 5	O=C1c2nc3ccccc3c(OCc3ccc(-c4ccccc4)cc3)c2-c2cccn21 [Compound 796b, 11-([1,1′-biphenyl]-4-ylmethoxy)-5H-pyrrolizino[2,1-b]quinolin-5-one]	–	–	–	–	–	–	0.05 to 5	0.05 to 5	0.05 to 5	0.05 to 5	0.05 to 5	0.05 to 5

The remaining lines, values behind:

SMILES	IC50 [4, 12] [mM]	IC50 [8] [µM]	IC50 ([4]; HT-1080 cells, 48 h, CCK-8) [mM]	IC50 [1, 9] [mM]	IC50 [2, 10] [mM]	IC50 [3, 11] [mM]	IC50 [5, 13] [mM]	IC50 [6, 14] [mM]	IC50 [7, 15] [mM]	IC50 ([1]; 48 h, CCK-8) [mM]	IC50 ([2]; HFL1 cells, 48 h, CCK-8) [mM]	IC50 ([3]; LX-2, 48 h, LX-2 cells, CCK-8) [mM]	IC50 [5, 16] [mM]	IC50 [6, 17] [mM]	IC50 ([7]; RAT-iCell-C002 cells, CCK-8) [mM]
O=C1c2c(nc3cc(N4CCNCC4)c(Cl)cc3c2O)-c2cccn21 [Compound 373b, 7-chloro-9-hydroxy-6-(piperazin-1-yl)-10H-pyrrolizino[1,2-b]quinolin-10-one]	0.05 to 5	1 to 10	–	0.05 to 5	0.05 to 5	0.05 to 5	0.05 to 5	0.05 to 5	0.05 to 5	–	–	–	–	–	–
O=C1c2c(nc3cccc(O)c3c2O)-c2cccn21 [Compound 470b, 8,9-dihydroxy-10H-pyrrolizino[1,2-b]quinolin-10-one]	0.05 to 5	1 to 10	–	0.05 to 5	0.05 to 5	0.05 to 5	0.05 to 5	0.05 to 5	0.05 to 5	–	–	–	–	–	–
O=C1c2cc(F)ccc2N(c2ccc(Cl)cc2)C2c3cccn3C(=O)C12 (stereo not shown) [Compound 133a, 4-(4-Chlorophenyl)-7-fluoro-3b,9a-dihydro-9H-pyrrolizino[1,2-b]quinoline-9,10(4H)-dione]	0.05 to 5	10 to 50	–	0.05 to 5	0.05 to 5	0.05 to 5	0.05 to 5	5 to 20	0.05 to 5	–	–	–	–	–	–
O=C1c2c(n(Cc3ccc(Cl)cc3)c3cccc(F)c3c2=O)-c2cccn21 [Compound 471a, 4-(4-Chlorobenzyl)-8-fluoro-9H-pyrrolizino[1,2-b]quinoline-9,10(4H)-dione]	0.05 to 5	0.1 to 1	–	0.05 to 5	0.05 to 5	< 0.05	0.05 to 5	0.05 to 5	0.05 to 5	–	–	–	–	–	–
O=C1c2c(n(Cc3ccc(F)cc3)c3c(Cl)cccc3c2=O)-c2cccn21 [Compound 481a, 5-Chloro-4-(4-fluorobenzyl)-9H-pyrrolizino[1,2-b]quinoline-9,10(4H)-dione]	0.05 to 5	10 to 50	–	< 0.05	0.05 to 5	0.05 to 5	0.05 to 5	0.05 to 5	0.05 to 5	–	–	–	–	–	–
O=C1c2c(n(Cc3ccccc3F)c3c(Cl)cccc3c2=O)-c2cccn21 [Compound 460a, 5-Chloro-4-(2-fluorobenzyl)-9H-pyrrolizino[1,2-b]quinoline-9,10(4H)-dione]	0.05 to 5	0.1 to 1	–	< 0.05	< 0.05	0.05 to 5	0.05 to 5	0.05 to 5	0.05 to 5	–	–	–	–	–	–
COc1c2c(nc3cc(N4CCNCC4)c(F)cc13)-c1cccn1C2=O [Compound 361b, 7-fluoro-9-methoxy-6-(piperazin-1-yl)-10H-pyrrolizino[1,2-b]quinolin-10-one]	0.05 to 5	1 to 10	–	0.05 to 5	0.05 to 5	5 to 20	0.05 to 5	0.05 to 5	0.05 to 5	–	–	–	–	–	–
CC(C)Oc1c2c(nc3cc(N4CCNCC4)c(F)cc13)-c1cccn1C2=O [Compound 331b, 7-fluoro-9-isopropoxy-6-(piperazin-1-yl)-10H-pyrrolizino[1,2-b]quinolin-10-one]	< 0.05	1 to 10	–	0.05 to 5	0.05 to 5	0.05 to 5	0.05 to 5	0.05 to 5	0.05 to 5	–	–	–	–	–	–
O=C1c2c(n(Cc3ccc(Cl)cc3)c3c(C(F)(F)F)cccc3c2=O)-c2cccn21 [Compound 450a, 4-(4-Chlorobenzyl)-5-(trifluoromethyl)-9H-pyrrolizino[1,2-b]quinoline-9,10(4H)-dione]	5 to 20	1 to 10	–	0.05 to 5	0.05 to 5	0.05 to 5	0.05 to 5	0.05 to 5	0.05 to 5	–	–	–	–	–	–
O=C1c2c([nH]c3cccc(F)c3c2=O)-c2cccn21 [Compound 467a, 8-Fluoro-9H-pyrrolizino[1,2-b]quinoline-9,10(4H)-dione]	0.05 to 5	1 to 10	–	< 0.05	0.05 to 5	0.05 to 5	0.05 to 5	0.05 to 5	0.05 to 5	–	–	–	–	–	–
O=C1c2c(n(Cc3cccc(Cl)c3)c3cccc(C(F)(F)F)c3c2=O)-c2cccn21 [Compound 466a, 4-(3-Chlorobenzyl)-8-(trifluoromethyl)-9H-pyrrolizino[1,2-b]quinoline-9,10(4H)-dione]	0.05 to 5	1 to 10	–	0.05 to 5	0.05 to 5	< 0.05	0.05 to 5	0.05 to 5	0.05 to 5	–	–	–	–	–	–
CC(C)=CCOc1c2c(nc3cc(N4CCNCC4)c(F)cc13)-c1cccn1C2=O [Compound 354b, 7-fluoro-9-((3-methylbut-2-en-1-yl)oxy)-6-(piperazin-1-yl)-10H-pyrrolizino[1,2-b]quinolin-10-one]	0.05 to 5	1 to 10	–	0.05 to 5	0.05 to 5	5 to 20	0.05 to 5	0.05 to 5	0.05 to 5	–	–	–	–	–	–
N#Cc1cccc2c1c(=O)c1c(n2Cc2cccc(F)c2)-c2cccn2C1=O [Compound 463a, 4-(3-Fluorobenzyl)-9,10-dioxo-4,10-dihydro-9H-pyrrolizino[1,2-b]quinoline-8-carbonitrile]	5 to 20	1 to 10	–	0.05 to 5	0.05 to 5	0.05 to 5	0.05 to 5	0.05 to 5	0.05 to 5	–	–	–	–	–	–
